From patent US20240368115A1, “REGULATOR CONTAINING TRICYCLIC DERIVATIVE, PREPARATION METHOD THEREFOR AND APPLICATION THEREOF” (SHUJING BIOPHARMA CO., LTD, priority 2021, published 2024) come the findings set out here.

Common to all, as to type: cell-based
In one assay the target is T1, 5-HT1A receptor (Homo sapiens, UniProt P08908).
T1 construct: expressed in transfected cells
T1 sequence (P08908 1-422): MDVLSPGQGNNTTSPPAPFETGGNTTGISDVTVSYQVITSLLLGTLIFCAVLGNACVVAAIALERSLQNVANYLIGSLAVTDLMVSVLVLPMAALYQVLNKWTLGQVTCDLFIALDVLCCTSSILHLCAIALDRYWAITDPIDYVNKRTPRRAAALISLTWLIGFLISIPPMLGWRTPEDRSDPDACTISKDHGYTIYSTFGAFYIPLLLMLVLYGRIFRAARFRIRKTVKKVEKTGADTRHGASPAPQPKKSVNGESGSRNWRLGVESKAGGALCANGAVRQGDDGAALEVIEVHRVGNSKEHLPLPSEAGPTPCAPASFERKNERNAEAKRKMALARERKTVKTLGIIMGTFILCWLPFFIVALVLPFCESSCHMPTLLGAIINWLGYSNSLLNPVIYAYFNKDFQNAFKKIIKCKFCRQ
Description: 5-HT1A receptor cAMP agonist test. Conditions: HEK293 cell strain stably expressing 5-HT1A receptor.

Another assay deals with T2, D2S receptor (Homo sapiens, UniProt P14416).
T2 construct: expressed in transfected cells
T2 sequence (P14416 1-414 isoform P14416-2): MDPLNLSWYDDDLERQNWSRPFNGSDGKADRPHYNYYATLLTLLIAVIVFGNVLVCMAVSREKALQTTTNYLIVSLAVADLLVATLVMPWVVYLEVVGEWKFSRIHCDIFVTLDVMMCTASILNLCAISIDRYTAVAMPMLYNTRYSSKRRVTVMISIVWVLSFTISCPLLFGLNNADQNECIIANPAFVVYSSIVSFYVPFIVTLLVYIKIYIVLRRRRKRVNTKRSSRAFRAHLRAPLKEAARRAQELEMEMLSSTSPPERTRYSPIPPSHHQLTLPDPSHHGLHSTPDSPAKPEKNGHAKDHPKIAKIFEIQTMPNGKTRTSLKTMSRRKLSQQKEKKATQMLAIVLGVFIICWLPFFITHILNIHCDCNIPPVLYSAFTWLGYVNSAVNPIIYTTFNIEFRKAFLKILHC
In words: D2S receptor cAMP agonist test. Conditions: HEK293 cell strain stably expressing D2S receptor.

In another assay the target is 5-HT2A receptor (Homo sapiens, UniProt P28223). Description: Calcium flux test for 5-HT2A receptor. Conditions: CHO cell strain stably expressing 5-HT2A receptor.
Chain of 5-HT2A receptor (P28223 whole entry): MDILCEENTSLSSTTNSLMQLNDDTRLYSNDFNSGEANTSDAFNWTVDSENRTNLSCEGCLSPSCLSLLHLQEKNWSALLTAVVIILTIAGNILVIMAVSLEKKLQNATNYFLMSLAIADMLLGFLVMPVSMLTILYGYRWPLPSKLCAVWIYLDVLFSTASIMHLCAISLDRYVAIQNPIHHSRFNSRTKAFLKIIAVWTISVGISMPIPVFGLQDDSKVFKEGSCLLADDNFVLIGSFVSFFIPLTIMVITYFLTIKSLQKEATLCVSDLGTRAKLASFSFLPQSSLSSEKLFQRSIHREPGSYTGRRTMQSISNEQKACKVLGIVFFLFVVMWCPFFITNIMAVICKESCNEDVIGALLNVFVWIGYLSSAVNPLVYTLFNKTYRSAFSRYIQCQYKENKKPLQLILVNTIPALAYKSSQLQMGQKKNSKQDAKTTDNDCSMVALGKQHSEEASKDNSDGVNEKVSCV

By EC50 is commonly meant the concentration that produces a half-maximal response. Higher therefore signals weaker potency. As a reminder, the IC50 is the concentration that inhibits the measured activity by half.

As for `O=C1Nc2cc(OCCCCN3CCN(c4cccc(Cl)c4Cl)CC3)ccc2C2CC12` (stereo not drawn) [Example 1, 5-(4-(4-(2,3-Dichlorophenyl)piperazin-1-yl)butoxy)-3,7b-dihydro-1H-cyclopropa[c]quinolin-2(1aH)-one], the EC50 on 5-HT1A receptor (cAMP, forskolin 2.5×10^−7 M) is 1010 nM; on D2S receptor (cAMP, forskolin 5×10^−7 M), 0.97 nM. For the same compound, the “5-HT1A Max Act %” value on 5-HT1A receptor (positive control serotonin 10^−6 M) came to 50.2%. The “D2S Max Act %” value at D2S receptor (positive control dopamine 1×10^−7 M) is recorded as 114.9%. For the same compound, the IC50 on 5-HT2A receptor (calcium flux, antagonism of serotonin) turned out to be 731 nM. The “5-HT2A Max Inh %” value on 5-HT2A receptor (positive control ketanserin 10^−7 M) is 98.4%.
